Test results as given in ChEMBL document CHEMBL3885861, “Open TG-GATES”.

Species on record: Rattus norvegicus
Assay: Open TG-GATES - Regimen: Daily Repeat
Format: toxicity, organism-based, Sprague-Dawley
Set-up: regimen Daily Repeat, gender Male, age 6 weeks
Conditions: in vivo, po, 50 mg/kg, route gavage, dose level Middle; for APTT / Bas / Eos / Fbg / Hb / Ht / Lym / MCH / MCHC / MCV / Mono / Neu / PT / Plat / RBC / Ret / WBC: tissue Blood; for KIDNEY_L / KIDNEY_R / KIDNEY_TOTAL: tissue Kidney; for LIVER: tissue Liver; for A/G / ALP / ALT / AST / BUN / CRE / Ca / Cl / DBIL / GLC / IP / K / LDH / Na / PL / RALB / TBIL / TC / TG / TP / gamma-GTP: tissue Plasma

`CC(C)C(=O)Nc1ccc([N+](=O)[O-])c(C(F)(F)F)c1` [FLUTAMIDE] was tested, and the TERMINAL_BW (72 h, time 3 day) was 215.7 g, the APTT (72 h, time 3 day) was 18.3 s and the Bas (72 h, time 3 day) was 0%. The Eos (72 h, time 3 day) was 1.2%, the Fbg (72 h, time 3 day) was 217 mg/dL and the Hb (72 h, time 3 day) was 14.3 g/dL. The Ht (72 h, time 3 day) was 43.4%, the Lym (72 h, time 3 day) was 78% and the MCH (72 h, time 3 day) was 20.9 pg. For the same molecule, the MCHC (72 h, time 3 day) was 32.9%, the MCV (72 h, time 3 day) was 63.5 fL and the Mono (72 h, time 3 day) was 2.6%. The Neu (72 h, time 3 day) was 17.4%, the PT (72 h, time 3 day) was 12.3 s and the Plat (72 h, time 3 day) was 115.2 x10_4/uL. It also gave an RBC (72 h, time 3 day) of 685 x10_4/ul, a Ret (72 h, time 3 day) of 4.1% and a WBC (72 h, time 3 day) of 77.6 x10_2/uL. The KIDNEY_L (72 h, time 3 day) was 0.9 g, the KIDNEY_R (72 h, time 3 day) was 1 g and the KIDNEY_TOTAL (72 h, time 3 day) was 1.9 g. For the same molecule, the LIVER (72 h, time 3 day) was 11.1 g, the A/G (72 h, time 3 day) was 1.7 and the ALP (72 h, time 3 day) was 1001 IU/L. The ALT (72 h, time 3 day) was 38 IU/L, the AST (72 h, time 3 day) was 66.2 IU/L and the BUN (72 h, time 3 day) was 14.6 mg/dL. The CRE (72 h, time 3 day) was 0.4 mg/dL, the Ca (72 h, time 3 day) was 10.7 mg/dL and the Cl (72 h, time 3 day) was 105 meq/L. The DBIL (72 h, time 3 day) was 0.098 mg/dL, the GLC (72 h, time 3 day) was 210.8 mg/dL and the IP (72 h, time 3 day) was 6.9 mg/dL. The K (72 h, time 3 day) was 3.6 meq/L, the LDH (72 h, time 3 day) was 175.8 IU/L and the Na (72 h, time 3 day) was 142 meq/L. For the same molecule, the PL (72 h, time 3 day) was 162.4 mg/dL, the RALB (72 h, time 3 day) was 3.6 g/dL and the TBIL (72 h, time 3 day) was 0.2 mg/dL. The TC (72 h, time 3 day) was 97.8 mg/dL, the TG (72 h, time 3 day) was 66.6 mg/dL and the TP (72 h, time 3 day) was 5.7 g/dL. For the same molecule, the gamma-GTP (72 h, time 3 day) was 1 IU/L, the TERMINAL_BW ([…], time 7 day) was 244.8 g and the TERMINAL_BW ([…], time 14 day) was 289.8 g. It also gave a TERMINAL_BW ([…], time 28 day) of 352.3 g, an APTT ([…], time 7 day) of 16.9 s and a Bas ([…], time 7 day) of 0%. It also gave an Eos ([…], time 7 day) of 1%, a Fbg ([…], time 7 day) of 221.4 mg/dL and a Hb ([…], time 7 day) of 13.6 g/dL. The Ht ([…], time 7 day) was 40.5%, the Lym ([…], time 7 day) was 82.2% and the MCH ([…], time 7 day) was 20.6 pg. It also gave an MCHC ([…], time 7 day) of 33.7%, an MCV ([…], time 7 day) of 61.2 fL and a Mono ([…], time 7 day) of 2.6%. The Neu ([…], time 7 day) was 13.8%, the PT ([…], time 7 day) was 12.7 s and the Plat ([…], time 7 day) was 126 x10_4/uL. For the same molecule, the RBC ([…], time 7 day) was 661.8 x10_4/ul, the Ret ([…], time 7 day) was 4.8% and the WBC ([…], time 7 day) was 115.5 x10_2/uL. It also gave an APTT ([…], time 14 day) of 20.1 s, a Bas ([…], time 14 day) of 0% and an Eos ([…], time 14 day) of 1%. It also gave a Fbg ([…], time 14 day) of 216.8 mg/dL, a Hb ([…], time 14 day) of 14.2 g/dL and a Ht ([…], time 14 day) of 41.8%. The Lym ([…], time 14 day) was 82%, the MCH ([…], time 14 day) was 20.7 pg and the MCHC ([…], time 14 day) was 34.1%. It also gave an MCV ([…], time 14 day) of 60.9 fL, a Mono ([…], time 14 day) of 1.8% and a Neu ([…], time 14 day) of 14.4%. For the same molecule, the PT ([…], time 14 day) was 12.6 s, the Plat ([…], time 14 day) was 116.7 x10_4/uL and the RBC ([…], time 14 day) was 687.8 x10_4/ul. The Ret ([…], time 14 day) was 4%, the WBC ([…], time 14 day) was 138.1 x10_2/uL and the APTT ([…], time 28 day) was 19.2 s. For the same molecule, the Bas ([…], time 28 day) was 0%, the Eos ([…], time 28 day) was 1% and the Fbg ([…], time 28 day) was 225 mg/dL. It also gave a Hb ([…], time 28 day) of 15 g/dL, a Ht ([…], time 28 day) of 42.3% and a Lym ([…], time 28 day) of 83.8%. For the same molecule, the MCH ([…], time 28 day) was 20.2 pg, the MCHC ([…], time 28 day) was 35.6% and the MCV ([…], time 28 day) was 56.9 fL. The Mono ([…], time 28 day) was 2%, the Neu ([…], time 28 day) was 12.2% and the PT ([…], time 28 day) was 12.5 s. It also gave a Plat ([…], time 28 day) of 107.9 x10_4/uL, an RBC ([…], time 28 day) of 743.2 x10_4/ul and a Ret ([…], time 28 day) of 2.1%. The WBC ([…], time 28 day) was 114.3 x10_2/uL, the KIDNEY_L ([…], time 7 day) was 1 g and the KIDNEY_R ([…], time 7 day) was 1 g. It also gave a KIDNEY_TOTAL ([…], time 7 day) of 2 g, a KIDNEY_L ([…], time 14 day) of 1.2 g and a KIDNEY_R ([…], time 14 day) of 1.1 g. It also gave a KIDNEY_TOTAL ([…], time 14 day) of 2.3 g, a KIDNEY_L ([…], time 28 day) of 1.3 g and a KIDNEY_R ([…], time 28 day) of 1.3 g. The KIDNEY_TOTAL ([…], time 28 day) was 2.5 g, the LIVER ([…], time 7 day) was 12.8 g and the LIVER ([…], time 14 day) was 14.8 g. It also gave an LIVER ([…], time 28 day) of 16.8 g, an A/G ([…], time 7 day) of 1.7 and an ALP ([…], time 7 day) of 753 IU/L. It also gave an ALT ([…], time 7 day) of 36.4 IU/L, an AST ([…], time 7 day) of 54.4 IU/L and a BUN ([…], time 7 day) of 15.6 mg/dL. It also gave a CRE ([…], time 7 day) of 0.4 mg/dL, a Ca ([…], time 7 day) of 10.9 mg/dL and a Cl ([…], time 7 day) of 103.8 meq/L. The DBIL ([…], time 7 day) was 0.09 mg/dL, the GLC ([…], time 7 day) was 215.2 mg/dL and the IP ([…], time 7 day) was 6.8 mg/dL. For the same molecule, the K ([…], time 7 day) was 3.7 meq/L, the LDH ([…], time 7 day) was 169.2 IU/L and the Na ([…], time 7 day) was 140.6 meq/L. The PL ([…], time 7 day) was 156.2 mg/dL, the RALB ([…], time 7 day) was 3.7 g/dL and the TBIL ([…], time 7 day) was 0.1 mg/dL. For the same molecule, the TC ([…], time 7 day) was 88.4 mg/dL, the TG ([…], time 7 day) was 67 mg/dL and the TP ([…], time 7 day) was 6 g/dL. It also gave a gamma-GTP ([…], time 7 day) of 0.2 IU/L, an A/G ([…], time 14 day) of 1.5 and an ALP ([…], time 14 day) of 685.8 IU/L. For the same molecule, the ALT ([…], time 14 day) was 33.2 IU/L, the AST ([…], time 14 day) was 59.2 IU/L and the BUN ([…], time 14 day) was 14.4 mg/dL. It also gave a CRE ([…], time 14 day) of 0.5 mg/dL, a Ca ([…], time 14 day) of 10.6 mg/dL and a Cl ([…], time 14 day) of 103.8 meq/L. For the same molecule, the DBIL ([…], time 14 day) was 0.086 mg/dL, the GLC ([…], time 14 day) was 192 mg/dL and the IP ([…], time 14 day) was 6.2 mg/dL. For the same molecule, the K ([…], time 14 day) was 3.8 meq/L, the LDH ([…], time 14 day) was 148 IU/L and the Na ([…], time 14 day) was 141.8 meq/L. The PL ([…], time 14 day) was 132 mg/dL, the RALB ([…], time 14 day) was 3.5 g/dL and the TBIL ([…], time 14 day) was 0.1 mg/dL. For the same molecule, the TC ([…], time 14 day) was 70.6 mg/dL, the TG ([…], time 14 day) was 58.6 mg/dL and the TP ([…], time 14 day) was 5.9 g/dL. It also gave a gamma-GTP ([…], time 14 day) of 1 IU/L, an A/G ([…], time 28 day) of 1.5 and an ALP ([…], time 28 day) of 449.8 IU/L. The ALT ([…], time 28 day) was 30.6 IU/L, the AST ([…], time 28 day) was 48.6 IU/L and the BUN ([…], time 28 day) was 17.4 mg/dL. It also gave a CRE ([…], time 28 day) of 0.5 mg/dL, a Ca ([…], time 28 day) of 10.5 mg/dL and a Cl ([…], time 28 day) of 103.8 meq/L. The DBIL ([…], time 28 day) was 0.078 mg/dL, the GLC ([…], time 28 day) was 227.2 mg/dL and the IP ([…], time 28 day) was 6.9 mg/dL. The K ([…], time 28 day) was 3.5 meq/L, the LDH ([…], time 28 day) was 124.2 IU/L and the Na ([…], time 28 day) was 141.8 meq/L. For the same molecule, the PL ([…], time 28 day) was 167.4 mg/dL, the RALB ([…], time 28 day) was 3.8 g/dL and the TBIL ([…], time 28 day) was 0.1 mg/dL. For the same molecule, the TC ([…], time 28 day) was 93.2 mg/dL, the TG ([…], time 28 day) was 54.2 mg/dL and the TP ([…], time 28 day) was 6.3 g/dL. The gamma-GTP ([…], time 28 day) was 1.6 IU/L.
